From ChEMBL document CHEMBL5500363, “Discovery of novel ocotillol derivatives modulating glucocorticoid receptor/NF-κB signaling for the treatment of sepsis” (Eur J Med Chem, 2024) come the findings set out here.

Active and inactive are the calls of the source. The rule behind the calls is not given here.

By IC50 is commonly meant the concentration that inhibits the measured activity by half. As a reminder, the inhibition is the percentage by which the read-out fell short of the control.

In assay [1] the test system is RAW264.7. Kind of assay: Inhibition of LPS-induced NO production in mouse RAW264.7 cells pretreated for 2 hrs followed by LPS stimulation for 24 hrs by Griess assay. It is filed as functional, cell-based. (In general: Griess reagent forms a coloured azo dye with nitrite.)
Assay [2] relates to RAW264.7. Kind of assay: Anti-inflammatory activity in mouse RAW264.7 cells assessed as inhibition of LPS-induced TNF-alpha production pretreated for 2 hrs followed by LPS stimulation for 24 hrs by ELISA. Conditions: dose 5-20 µM, time 26.0 hrs. It counts as functional, cell-based. A general note: ELISA stands for enzyme-linked immunosorbent assay.
The subject of assay [3] is Mus musculus. Description: Anti-septic activity in LPS-induced sepsis BALB/c mouse assessed as reduction in serum IL-6 level at 7.5 to 30 mg/kg administered via gavage for 3 days followed by LPS treatment for 6 hrs by ELISA. It is filed as functional, organism-based. Conditions: dose 7.5-30 mg/kg, time 78.0 hrs.
For assay [4], the system named is Mus musculus. Kind of assay: Anti-septic activity in LPS-induced sepsis BALB/c mouse assessed as reduction in serum AST level at 30 mg/kg administered via gavage for 3 days followed by LPS treatment for 6 hrs. It counts as functional, organism-based. The conditions noted are these: time 78.0 hrs.
The subject of assay [5] is RAW264.7. Description: Anti-inflammatory activity in mouse RAW264.7 cells assessed as inhibition of LPS-induced IL-6 production pretreated for 2 hrs followed by LPS stimulation for 24 hrs by ELISA. It is filed as functional, cell-based. The conditions noted are these: dose 5-20 µM.
Assay [6] has as its system Mus musculus. Kind of assay: Anti-septic activity in LPS-induced sepsis BALB/c mouse assessed as reduction in lung tissue damage at 7.5 to 30 mg/kg administered via gavage for 3 days followed by LPS treatment for 6 hrs by H and E staining based analysis. Conditions: dose 7.5-30 mg/kg, time 78.0 hrs. It is filed as functional, organism-based.
Assay [7] relates to Mus musculus. Kind of assay: Anti-septic activity in LPS-induced sepsis BALB/c mouse assessed as reduction in hepatic hemorrhage at 7.5 to 30 mg/kg administered via gavage for 3 days followed by LPS treatment for 6 hrs by H and E staining based analysis. It is filed as functional, organism-based. Conditions: dose 7.5-30 mg/kg, time 78.0 hrs.
The test system of assay [8] is RAW264.7. Description: Downregulation of glucocorticoid receptor in mouse RAW264.7 cells at 20 uM incubated for 24 hrs by Western blot analysis. It is filed as functional, cell-based. For orientation: A western blot detects proteins with antibodies after separation by electrophoresis.
For assay [9], the system named is Mus musculus. Kind of assay: Anti-septic activity in LPS-induced sepsis BALB/c mouse assessed as reduction in serum ALT level at 30 mg/kg administered via gavage for 3 days followed by LPS treatment for 6 hrs. It is filed as functional, organism-based. Conditions: time 78.0 hrs.
Assay [10] concerns RAW264.7. Kind of assay: Effect on KLF9 mRNA expression in mouse RAW264.7 cells by qPCR analysis. It is filed as functional, cell-based.
Assay [11] has as its system RAW264.7. Description: Inhibition of LPS-induced NO production in mouse RAW264.7 cells at 10 uM pretreated for 2 hrs followed by LPS stimulation for 24 hrs by Griess assay relative to control. Conditions: time 26 hrs. It is filed as functional.
For assay [12], the target named is T1, Glucocorticoid receptor (Mus musculus) (UniProt P06537).
T1 sequence (whole entry): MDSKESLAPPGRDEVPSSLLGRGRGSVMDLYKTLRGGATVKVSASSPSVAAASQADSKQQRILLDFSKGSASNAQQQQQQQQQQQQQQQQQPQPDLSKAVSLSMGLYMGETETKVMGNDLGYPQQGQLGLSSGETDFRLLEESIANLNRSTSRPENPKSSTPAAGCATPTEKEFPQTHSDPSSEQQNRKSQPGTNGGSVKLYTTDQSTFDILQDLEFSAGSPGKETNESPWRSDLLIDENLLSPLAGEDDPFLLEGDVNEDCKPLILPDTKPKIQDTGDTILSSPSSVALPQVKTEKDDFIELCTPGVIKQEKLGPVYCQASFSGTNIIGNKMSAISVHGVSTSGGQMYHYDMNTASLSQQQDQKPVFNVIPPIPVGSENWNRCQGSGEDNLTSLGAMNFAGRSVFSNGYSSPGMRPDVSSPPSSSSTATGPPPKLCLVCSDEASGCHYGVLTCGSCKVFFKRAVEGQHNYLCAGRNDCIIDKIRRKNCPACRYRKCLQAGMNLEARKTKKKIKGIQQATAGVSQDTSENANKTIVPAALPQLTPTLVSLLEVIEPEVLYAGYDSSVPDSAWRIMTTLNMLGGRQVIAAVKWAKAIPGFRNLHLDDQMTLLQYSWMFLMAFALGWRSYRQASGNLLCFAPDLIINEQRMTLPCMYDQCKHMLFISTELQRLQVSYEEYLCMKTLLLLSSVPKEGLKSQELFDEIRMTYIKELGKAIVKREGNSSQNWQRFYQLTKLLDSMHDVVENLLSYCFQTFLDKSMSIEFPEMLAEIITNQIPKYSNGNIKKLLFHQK
Description: Binding affinity to glucocorticoid receptor in mouse RAW264.7 cells assessed as increase in thermal stability at 47 degreeC pretreated for 24 hrs followed by heat exposure for 3 mins and subsequently incubated at room temperature for 3 mins by CETSA. It is filed as cell-based. Conditions: dose 2.5-40 µM, time 1446.0 min.

In assay [13] the test system is RAW264.7. Description: Anti-inflammatory activity in mouse RAW264.7 cells assessed as decrease in LPS-induced I-kappaB-alpha phosphorylation at 20 uM pretreated for 2 hrs followed by LPS stimulation for 24 hrs by Western blot analysis. It is filed as functional, cell-based. Conditions: time 26.0 hrs.
The subject of assay [14] is RAW264.7. Description: Upregulation of glucocorticoid receptor expression in LPS-treated mouse RAW264.7 cells pretreated for 2 hrs followed by LPS stimulation for 24 hrs by Western blot analysis. It is filed as functional, cell-based. Conditions: time 26.0 hrs.
For assay [15], the system named is Mus musculus. Kind of assay: Anti-septic activity in LPS-induced sepsis BALB/c mouse assessed as increase in survival rate at 7.5 to 30 mg/kg administered via gavage for 3 days followed by LPS treatment for 6 hrs. It counts as functional, organism-based. Conditions: dose 7.5-30 mg/kg, time 78.0 hrs.
Assay [16] has as its system Mus musculus. Kind of assay: Anti-septic activity in LPS-induced sepsis BALB/c mouse assessed as reduction in serum TNF-alpha level at 7.5 to 30 mg/kg administered via gavage for 3 days followed by LPS treatment for 6 hrs by ELISA. It is filed as functional, organism-based. The conditions noted are these: dose 7.5-30 mg/kg, time 78.0 hrs.
The subject of assay [17] is RAW264.7. Kind of assay: Anti-inflammatory activity in mouse RAW264.7 cells assessed as decrease in LPS-induced p65 phosphorylation at 20 uM pretreated for 2 hrs followed by LPS stimulation for 24 hrs by Western blot analysis. It counts as functional, cell-based. The conditions noted are these: time 26.0 hrs.
The target of assay [18] is T1, Glucocorticoid receptor (Mus musculus). Kind of assay: Stabilization of glucocorticoid receptor in mouse RAW264.7 cells assessed as blockade of CHX-induced protein degradation at 20 uM incubated for 24 hrs by Western blot analysis. It counts as cell-based.
For assay [19], the system named is Mus musculus. Description: Anti-septic activity in LPS-induced sepsis BALB/c mouse assessed as reduction in pathological change in kidney at 7.5 to 30 mg/kg administered via gavage for 3 days followed by LPS treatment for 6 hrs by H and E staining based analysis. It counts as functional, organism-based. Conditions: dose 7.5-30 mg/kg, time 78.0 hrs.
Assay [20] addresses T1, Glucocorticoid receptor (Mus musculus). Description: Binding affinity to glucocorticoid receptor in mouse RAW264.7 cells assessed as thermal stability by measuring protein degradation at 47 degreeC at 10 to 40 uM pretreated for 24 hrs followed by heat exposure for 3 mins and subsequently incubated at room temperature for 3 mins by CETSA. It is filed as cell-based. Conditions: dose 10-40 µM, time 1446.0 min.

In assay [21] the test system is Mus musculus. Kind of assay: Downregulation of I-kappa-B-alpha phosphorylation in liver of LPS-induced sepsis BALB/c mouse model at 7.5 to 30 mg/kg administered via gavage for 3 days followed by LPS treatment for 6 hrs by Western blot analysis. Conditions: dose 7.5-30 mg/kg, time 78.0 hrs. It counts as functional, organism-based.
Assay [22] concerns Mus musculus. Kind of assay: Anti-septic activity in LPS-induced sepsis BALB/c mouse assessed as body weight recovery at 7.5 to 30 mg/kg administered via gavage for 3 days followed by LPS treatment for 6 hrs. It is filed as functional, organism-based. Conditions: dose 7.5-30 mg/kg, time 78.0 hrs.
Assay [23] has as its target T1, Glucocorticoid receptor (Mus musculus). Kind of assay: Binding affinity to glucocorticoid receptor in mouse RAW264.7 cells assessed as increase in thermal stability at 47 to 51 degreeC at 40 uM pretreated for 24 hrs followed by heat exposure for 3 mins and subsequently incubated at room temperature for 3 mins by CETSA. It is filed as cell-based. Conditions: time 1446.0 min.

As to `CC(C)(C)OC(=O)CCC(=O)Nc1nc2c(s1)C[C@]1(C)[C@H]3C[C@@H](O)[C@@H]4C([C@]5(C)CC[C@@H](C(C)(C)O)O5)CC[C@@]4(C)[C@]3(C)CC[C@H]1C2(C)C` (stereo partly drawn), in assay [1], the IC50 is 3.38 µM. Besides, the inhibition result in assay [2] and in assay [5] was “Dose-Dependent Effect” each time. Moreover, the outcome in assay [3], in [4], in [6], in [7], in [9] and in [13] was Active. Also, the result in assay [14], in assay [15], in assay [16], in assay [17], in assay [18] and in assay [19] was Active. Further, the outcome in assay [20], in assay [21], in assay [22] and in [23] was Active. The outcome in [8] and in [10] was inactive. The inhibition at 10 µM in assay [11] stood at 52.6%. For the same compound, the Activity result in [12] is “Dose-Dependent Effect”.
